# According to US20070092527A1, “Proton-sensing g-protein coupled receptors and dna sequences thereof” (NOVARTIS AG, priority 2003, published 2007):
# Legend:
# OGR1 [1] = target: T1, OGR1 (Homo sapiens, UniProt Q15743); assay: Inositol phosphate (IP) formation assay, cells expressing OGR1; assay type: cell-based; conditions: for Inhibition of OGR1-dependent IP formation: stimulated at pH 6.9, micromolar concentrations
# T1 construct: His; expressed in transfected cells
# Target sequence in this assay (Q15743 whole entry): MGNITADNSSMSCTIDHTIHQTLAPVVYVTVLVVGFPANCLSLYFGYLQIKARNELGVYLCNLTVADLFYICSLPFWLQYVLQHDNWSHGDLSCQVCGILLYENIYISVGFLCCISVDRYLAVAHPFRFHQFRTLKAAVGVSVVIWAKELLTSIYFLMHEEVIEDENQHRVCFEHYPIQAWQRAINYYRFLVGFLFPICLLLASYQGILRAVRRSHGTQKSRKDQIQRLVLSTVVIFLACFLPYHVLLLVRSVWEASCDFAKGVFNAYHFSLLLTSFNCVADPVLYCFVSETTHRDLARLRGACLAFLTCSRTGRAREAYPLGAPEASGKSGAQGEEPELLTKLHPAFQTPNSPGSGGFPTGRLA
# [2] = test system: MG63 human osteosarcoma cells; assay: IP formation in MG63 human osteosarcoma cells (endogenous OGR1 mRNA); assay type: cell-based
# [3] = test system: thrombin-stimulated IP formation (endogenous receptors in CCL39 cells); assay: Thrombin-stimulated IP formation in CCL39 cells; assay type: cell-based, hamster; conditions: for Effect on thrombin-stimulated IP formation: control CCL39 cells
# Human TDAG8 [4] = target: T2, Human TDAG8 (Homo sapiens, UniProt Q8IYL9); assay: cAMP formation assay, TDAG8; assay type: cell-based; conditions: TDAG8
# T2 construct: His; expressed in transfected cells; host or cells: CCL39 (cAMP formation); CCL39 CRE-luc (luciferase reporter)
# Protocol: (§1) Stable cell lines expressing TDAG8 are generated in either CCL39 cells or in CCL39 CRE-luc cells which stably express a cAMP-dependent luciferase reporter to detect changes in cAMP in response to ligand. Stable cell lines are generated In the above cell lines by transfecting the TDAG8 cDNA expression construct using Effectene (Qiagen, Basel, Switzerland) according to the manufacturers protocol. Transfected cells are selected in the presence of 400 μg/ml of G418. After 3 weeks of antibiotic selection, individual clones are picked and expanded for further analysis.
# Human GPR4 [5] = target: T3, Human GPR4 (Homo sapiens, UniProt P46093); assay: cAMP formation assay, GPR4; assay type: cell-based; conditions: GPR4
# T3 construct: Human GPR4 is amplified from genomic DNA using primers GPR4F and GPR4R; expressed in transfected cells; host or cells: HEK293 (transient)
# Protocol: (§2) Human GPR4 is amplified from genomic DNA using primers GPR4F and GPR4R (5′ CACC ATGGGCAACCACACGTGGGAGGGCTGC 3′ and 5′ TCATTGTGCTGGCGGCAGCATCTTCAGCTGCA 3′ respectively). The PCR reaction mixture contains 0.2 mM dNTPs, 1×PCR buffer containing 1.5 mM MgCl2, 0.5 Units Taq DNA polymerase, 40 pmol each primer and sterile water in a total volume of 50 μl. The template for this reaction is human genomic DNA (Promega, Southampton, UK). PCR is performed using a Biometra T3 Thermocycler using the following cycling conditions: Denaturation at 95° C. for 2 min followed by 35 cycles of denaturation at 95° C. for 15s, annealing at 60° C. for 15 s, and extension at 72° C. for 1 min. A final extension at 72° C. is performed for 7 min. The 1.1 kb PCR product is purified and cloned pcDNA3.1 DN5-His-TOPO (Invitrogen, Paisley, UK).
# Human GPR4 [6] = target: T4, Human GPR4 (Homo sapiens, UniProt P46093, E51Q/F19H/F93P/Q349E); assay: cAMP formation assay, GPR4; assay type: cell-based
# T4 construct: Human GPR4 is amplified from genomic DNA using primers GPR4F and GPR4R; expressed in transfected cells; host or cells: HEK293 (transient)
# Protocol: as §2
# [7] = test system: forskolin-stimulated adenylyl cyclase; assay: Forskolin-stimulated adenylyl cyclase in other cell systems; assay type: cell-based
# OGR1 [8] = target: T1, OGR1; assay: Cytoplasmic calcium transients (Fluo-3, fluorescence-imaging plate reader), CCL39 cells transfected with OGR1; assay type: cell-based; conditions: shift of extracellular pH from pH 7.6; mean+/-sem, N=3
# Protocol: Method: Cytoplasmic calcium transients are recorded using the calcium indicator Fluo-3 and a fluorescence-imaging plate reader (Molecular Devices/BucherBiotech, Basel, Switzerland).
# CCL39 cells transfected with OGR1 are loaded with the acetoxymethylester of the dye (2 μg/ml) for 1 h at 37° C. in full medium containing 5 mM probenicide to inhibit the multidrug resistance transporter. […] To identify receptor antagonists, test compounds are added during the last 15 minutes of this incubation. After transfer to the reader a baseline is recorded (Fb), and cells are then stimulated by addition of an appropriate amount of stronger buffer (20 mM HEPES, pH 6), inducing acidification.
# Alternatively, test compounds are added at this stage to identify agonistic molecules. The fluorescence readout F is normalised calculating F′=(F−Fb)/Fb.
# Target sequence in this assay (Q15743 whole entry T18I/I19T): as the sequence (Q15743 whole entry) above, with T18I, I19T counted along it
# Human TDAG8 [9] = target: T5, Human TDAG8 (Homo sapiens, UniProt Q8IYL9, A43P/F130I/N97L/Q180E/W80T); assay: cAMP formation assay, TDAG8; assay type: cell-based; conditions: CCL39 cells stably expressing the receptor; mean+/-sem, N=6
# T5 construct: His; expressed in transfected cells; host or cells: CCL39 (cAMP formation); CCL39 CRE-luc (luciferase reporter)
# Protocol: as §1
# Human TDAG8 [10] = target: T5, Human TDAG8; assay: cAMP luciferase reporter assay, TDAG8 in CCL39 CRE-luc cells; assay type: cell-based; conditions: CCL39 CRE-luc cells stably expressing the receptor; mean+/-sem, N=7
# Protocol: as §1
# Cells co-expressing TDAG8 and a cAMP luciferase reporter, as described in Example 8, are plated at 10-20,000 cells per well in white 96 well plates. The day before performing the assay the medium is changed for serum-free DMEM and the cells are incubated overnight at 37° C. in the presence of 5% CO2. […] 100 μl of the appropriate HBS buffer containing the to be tested compound (e.g. from any in-house or commercially available compound library) are then added on the cells. […] Agonists in the assay produce an increase in luminescence whereas antagonists produce a decrease in the luminescence. E.g. antagonists are characterised in the assay by a decrease in luminescence signal compared to the no compound control and e.g. in acidic pH buffer at pH 6.8 or pH 7.0 or at half-maximal activation of human TDAG8. […]
# T4 sequence (P46093 whole entry F19H/E51Q/F93P/Q349E): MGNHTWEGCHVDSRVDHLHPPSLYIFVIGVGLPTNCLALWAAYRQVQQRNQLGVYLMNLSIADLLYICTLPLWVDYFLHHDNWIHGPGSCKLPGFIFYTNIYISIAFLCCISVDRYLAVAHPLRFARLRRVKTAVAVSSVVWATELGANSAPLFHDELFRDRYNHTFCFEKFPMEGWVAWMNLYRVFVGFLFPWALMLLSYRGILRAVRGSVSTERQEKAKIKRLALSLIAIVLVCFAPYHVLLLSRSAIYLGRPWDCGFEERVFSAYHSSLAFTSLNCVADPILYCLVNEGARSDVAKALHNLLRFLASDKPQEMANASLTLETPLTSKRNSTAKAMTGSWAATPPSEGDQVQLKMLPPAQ
# T5 sequence (Q8IYL9 whole entry A43P/W80T/N97L/F130I/Q180E): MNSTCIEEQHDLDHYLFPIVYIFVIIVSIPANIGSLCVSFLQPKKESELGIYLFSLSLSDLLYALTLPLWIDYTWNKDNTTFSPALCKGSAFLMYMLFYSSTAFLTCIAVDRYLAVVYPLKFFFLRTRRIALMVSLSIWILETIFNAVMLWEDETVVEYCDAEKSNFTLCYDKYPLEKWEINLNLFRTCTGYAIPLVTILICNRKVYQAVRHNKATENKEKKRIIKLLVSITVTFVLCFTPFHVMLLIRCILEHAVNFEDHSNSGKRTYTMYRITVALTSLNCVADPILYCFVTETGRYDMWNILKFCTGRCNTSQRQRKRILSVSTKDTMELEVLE
# T3 sequence (P46093 whole entry F19H/E51Q/F93P/Q349E): as the sequence (P46093 whole entry F19H/E51Q/F93P/Q349E) above
# T2 sequence (Q8IYL9 whole entry A43P/W80T/N97L/F130I/Q180E): as the sequence (Q8IYL9 whole entry A43P/W80T/N97L/F130I/Q180E) above
molecule,measurement,setting,value
[Cu+2] [Cu^2+],Inhibition of OGR1-dependent IP formation,OGR1 [1],strongly Inhibit
same,Effect on pH-stimulated IP formation,"[2]; PTX pretreatment, or micromolar concentrations of copper ions",inhibited
same,Effect on thrombin-stimulated IP formation,[3],without effect
CCCCCCCCCCCCC/C=C/[C@@H](O)[C@@H](N)CO[C@@H]1O[C@H](CO)[C@H](O)[C@H](O)[C@H]1O [Psychosine],Activation of cAMP formation on its own,Human TDAG8 [4],does not activate cAMP formation on its own
CCCCCCCCCCCCC/C=C/[C@@H](O)[C@@H](N)COP(=O)([O-])OCC[N+](C)(C)C [SPC],Effect on pH-dependent stimulation of IP formation,OGR1 [1]; CCL39 cells expressing OGR1,does not affect pH-dependent stimulation of IP formation
same,Stimulation of OGR1 (IP formation),OGR1 [1]; CCL39 cells expressing OGR1,does not stimulate the receptor
same,Activation of cAMP formation on its own,Human GPR4 [5],does not activate cAMP formation on its own
same,Effect on pH-dependent stimulation of cAMP formation,Human GPR4 [6]; GPR4,does not modulate pH-dependent stimulation
same,Effect on forskolin-stimulated adenylyl cyclase,[7],inhibiting forskolin-stimulated adenylyl cyclase
[Zn+2] [Zn^2+],Inhibition of OGR1-dependent IP formation,OGR1 [1],strongly Inhibit
same,Effect on thrombin-stimulated IP formation,[3],partial inhibition
[H+] [protons],Half-maximal activation of the receptor (IP formation),"OGR1 [1]; OGR1 expressed in CCL39 hamster fibroblasts, mean+/-sem, N=12, pH referenced to room temperature",7.48+/−0.04 pH
same,Hill coefficient of activation,"OGR1 [1]; OGR1 in CCL39 hamster fibroblasts, IP formation",> 2
same,Half-maximal activation of IP formation,"OGR1 [1]; transiently transfected HEK cells, mean+/-sem, N=4",7.38+/−0.04 pH
same,Halfmaximal activation of IP formation,"[2]; mean+/-sem, N=5",7.46+/−0.01 pH
same,Half-maximal activation (intracellular calcium response),OGR1 [8],7.20+/−0.04 pH
same,Half-maximal activation of cAMP formation by GPR4,"Human GPR4 [6]; transiently transfected HEK293 cells, mean+/-sem, N=6",7.55+/−0.02 pH
same,Half-maximal activation of cAMP formation by TDAG8,Human TDAG8 [9],7.15+/−0.02 pH
same,Half-maximal activation of luciferase induction by human TDAG8,Human TDAG8 [10],7.28+/−0.02 pH
"thrombin: bovine thrombin, activates endogenous receptors in CCL39 cells",pH modulation of the response to the receptor agonist (IP formation),[3]; range of pH 7-8,not positively modulated
